Tests used:
[1] = Solubility in cell culture medium; format: physicochemical; conditions: maximal tested concentration limited by 50 µM
KB-3-1 cells = test: MTT cytotoxicity assay, KB-3-1; format: cell-based, human; conditions: for IC50: Homo sapiens, KB 3-1, MTT, 24 h, read-out: IC50 KB3-1 (cervix); for Selectivity index KB-3-1: ratio IC50 hFF3 / IC50 KB-3-1
Text: (§1) According to our previous data and data published by other research groups, chemical transformations of bile acids can greatly improve their antitumor potential. Thus, as the first step of evaluation of the biological activities of our novel DCA derivatives we assessed their effects on tumor cell viability. The cytotoxicity of the compounds was investigated with respect to a panel of cultured cell lines, including human duodenal HuTu-80, hepatocellular HepG2, cervical KB-3-1 and lung A549 carcinomas as well as murine macrophage RAW264.7 and non-transformed human fibroblasts hFF3 by MTT assay.
(§2) Human duodenal carcinoma HuTu-80 cells, human hepatocellular carcinoma HepG2 cells, human cervical carcinoma KB-3-1 cells, human lung carcinoma A549 cells were obtained from the Russian Cell Culture Collection (Institute of Cytology, RAS, St. Petersburg, Russia). Non-transformed human fibroblasts hFF3 were kindly provided by Dr. Olga Koval (Institute of Chemical Biology and Fundamental Medicine, SB RAS, Novosibirsk, Russia). RAW264.7 macrophages were kindly provided by Prof. Dr. Dmitry Kuprash (Engelhardt Institute of Molecular Biology, RAS, Moscow, Russia). The cells were cultured in DMEM (Sigma-Aldrich Inc., St. Louis, MO, USA) supplemented with 10% (v/v) heat-inactivated fetal bovine serum (FBS) (BioloT, St. Petersburg, Russia), 100 U/mL penicillin (ICN Biomedicals Inc., Costa Mesa, CA, USA), 100 µg/mL streptomycin and 0.25 µg/mL amphotericin; additionally, in the case of RAW264.7 cells, concentration of glucose in the medium was increased up to 4.5 mg/mL. The cells were incubated at 37 °C in 5% CO2 and 95% air (hereafter referred to as standard conditions). DCA derivatives were dissolved in DMSO to yield stock solutions of 10 mmol/L and stored at −20 °C prior to use.
(§3) Cells were seeded in triplicate in 96-well plates at a density of 5 × 10^3 (HuTu-80, HepG2, KB-3-1, hFF3), 10^4 (A549) or 5 × 10^4 (RAW264.7) cells per well. Cells were incubated under standard conditions for 24 h and then they were treated with varying doses of investigated derivatives for subsequent 24 h. Then 10 µL of MTT solution (5 mg/mL) were added to each wells and cells were incubated for an additional 2 h under standard conditions. The crystals of formazan forming within live cells were solubilized with DMSO and the absorbance was measured in a Multiscan RC plate reader (Thermo LabSystems, Helsinki, Finland) at a test and reference wavelengths of 570 nm and 620 nm, respectively. […] To perform SAR analysis, hierarchical clustering of compounds based on their IC50 values was fulfilled with Euclidean distance by using the Morpheus tool (https://software.broadinstitute.org/morpheus/), a platform designed for visualization and analysis of data in a matrix format. Heatmap, containing compounds’ SI values, were constructed by using the Excel 2010 software (Microsoft, Redmond, WA, USA). In order to reveal whether ROS participate in the induction of cell death by compound 9, HuTu-80 cells cultured in 96-well plate were pretreated by NAC at 2 mM for 1 h. Thereafter, the medium was replaced by fresh medium with compound 9 at 8 µM and the cells were incubated with subsequent 24 h under standard conditions. After this time period, the curves of cytotoxicity of compound 9 in the presence or absence of NAC were compared.

[2] = tested on: NO synthesis by IFNγ-activated RAW264.7 cells; test: Inhibition of NO production by stimulated macrophages (Griess); format: cell-based, murine; conditions: Mus musculus, RAW264.7, 24 h, read-out: IC50NO
Method: RAW264.7 cells were seeded in triplicate in 96-well plates at a density of 5 × 10^4 cells/well and incubated under standard conditions for 24 h. The cells were treated with 20 ng/mL of murine recombinant IFNγ (GIBCO, Gaithersburg, MD, USA), with or without (control) compounds at various concentrations for 24 h. The level of NO production was evaluated by determining the nitrite concentration in culture medium with a Griess Reagent System (Promega, Madison, WI, USA). The IC50^NO value was calculated as the derivative concentration required to decrease NO production to 50% of the non-treated control.

A549 cells = test: MTT cytotoxicity assay, A549; format: cell-based, human; conditions: for IC50: Homo sapiens, A549, MTT, 24 h, read-out: IC50 A549 (lung); for Selectivity index A549: ratio IC50 hFF3 / IC50 A549
Text: as §1, §2, §3

[3] = tested on: non-transformed human fibroblasts hFF3; test: MTT cytotoxicity assay, hFF3; format: cell-based; conditions: HFF-3, 24 h, read-out: IC50 hFF3 (fibroblast)
Text: as §1
as §2, with “DCA derivatives were dissolved in DMSO to yield stock solutions of 10 mmol/L and stored at −20 °C prior to use.” left out
Cells were seeded in triplicate in 96-well plates at a density of 5 × 10^3 (HuTu-80, HepG2, KB-3-1, hFF3), 10^4 (A549) or 5 × 10^4 (RAW264.7) cells per well. […] The crystals of formazan forming within live cells were solubilized with DMSO and the absorbance was measured in a Multiscan RC plate reader (Thermo LabSystems, Helsinki, Finland) at a test and reference wavelengths of 570 nm and 620 nm, respectively. […]

HuTu-80 cells = test: cells; format: cell-based; conditions: for IC50: Homo sapiens, HuTu80, MTT, 24 h, read-out: IC50 HuTu-80 (duodenum); for Selectivity index HuTu-80: ratio IC50 hFF3 / IC50 HuTu-80
Text: as §1, §2, §3

HepG2 cells = test: MTT cytotoxicity assay, HepG2; format: cell-based, human; conditions: for IC50: Homo sapiens, HepG2, MTT, 24 h, read-out: IC50 HepG2 (liver); for Selectivity index HepG-2: ratio IC50 hFF3 / IC50 HepG2
Text: as §1, §2, §3

RAW264.7 macrophages = test: MTT cytotoxicity assay, RAW264.7; format: cell-based, murine; conditions: for IC50: Mus musculus, RAW264.7, MTT, 24 h, read-out: IC50 RAW264.7 (macrophage); for Selectivity index RAW264: ratio IC50 hFF3 / IC50 RAW264.7
Text: as §1, §2, §3

[4] = tested on: panel of cultured cell lines (HuTu-80, HepG2, KB-3-1, A549, RAW264.7, hFF3); test: MTT cytotoxicity, range over the panel of tested cell lines; format: cell-based; conditions: 24 h, summary of Table 1 (for 2–10 partly from ref [21])
Text: as §1
Cells were seeded in triplicate in 96-well plates at a density of 5 × 10^3 (HuTu-80, HepG2, KB-3-1, hFF3), 10^4 (A549) or 5 × 10^4 (RAW264.7) cells per well. Cells were incubated under standard conditions for 24 h and then they were treated with varying doses of investigated derivatives for subsequent 24 h. Then 10 µL of MTT solution (5 mg/mL) were added to each wells and cells were incubated for an additional 2 h under standard conditions. The crystals of formazan forming within live cells were solubilized with DMSO and the absorbance was measured in a Multiscan RC plate reader (Thermo LabSystems, Helsinki, Finland) at a test and reference wavelengths of 570 nm and 620 nm, respectively. […]

| SMILES | solubility in cell culture medium [1] | IC50 (KB-3-1 cells) [µM] | Selectivity index KB-3-1 (KB-3-1 cells) | IC50 [2] [µM] | IC50 (A549 cells) [µM] | Selectivity index A549 (A549 cells) | IC50 [3] [µM] | IC50 (HuTu-80 cells) [µM] | Selectivity index HuTu-80 (HuTu-80 cells) | IC50 (HepG2 cells) [µM] | Selectivity index HepG-2 (HepG2 cells) | IC50 (RAW264.7 macrophages) [µM] | Selectivity index RAW264 (RAW264.7 macrophages) | IC50 [4] [µM] |
| --- | --- | --- | --- | --- | --- | --- | --- | --- | --- | --- | --- | --- | --- | --- |
| COC(=O)CC[C@@H](C)[C@H]1CC[C@H]2[C@@H]3CC[C@@H]4CC(O)(CN5CCOCC5)CC[C@]4(C)[C@H]3CC(=O)[C@]12C (stereo partly drawn) [Compound 10, Methyl 3-hydroxy-3-(morpholinomethyl)-12-oxo-5β-cholan-24-oate] | poorly soluble | 8.4 ± 0.5 | 5.9 | > 10 | > 50 | 1 | > 50 | 10 ± 0.3 | 5 | 7.5 ± 1.2 | 6.6 | > 50 | 1 | – |
| COC(=O)CC[C@@H](C)[C@H]1CC[C@H]2[C@@H]3CC[C@@H]4CC(O)(CNCCO)CC[C@]4(C)[C@H]3CC(=O)[C@]12C (stereo partly drawn) [Compound 8, Methyl 3-hydroxy-3-((2-hydroxyethylamino)methyl)-12-oxo-5β-cholan-24-oate] | – | 17.7 ± 2.8 | 1.9 | > 10 | 29.6 ± 2.5 | 1.2 | 34.8 ± 1 | 4.4 ± 0.34 | 7.9 | 5.8 ± 1.3 | 6 | 23.4 ± 1.2 | 1.5 | 4.4 to 34.8 |
